Measurements reported in publication PMC9866460, “Antifungal Combination Eye Drops for Fungal Keratitis Treatment” (Pharmaceutics, 2022).
Values after ≈ are worked out from the molar mass of the structure shown.

Key:
[1] = physchem; type: physicochemical
Description: The solubility assay was based on the addition of an excess of the drug to different solutions with increasing concentrations of two different cyclodextrins, 2-hydroxypropyl-β-cyclodextrin (HPβCD) or 2-hydroxypropyl-ɣ-cyclodextrin (HPγCD). […] Afterwards, the resultant solutions were centrifugated (Eppendorf® Centrifuge 5804R) at 12,000 rpm for 30 min and 25 °C. […] Each measurement was performed in triplicate.

[2] = Particle size of cyclodextrin/drug aggregates by TEM; type: physicochemical
Description: Samples were placed on copper grids and stained with 2% (w/v) phosphotungstic acid. Samples were dried and evaluated by TEM observation using an accelerating voltage of 200 kV.
Particle size was measured using Image-Pro Plus Image Analysis Software Version 6.0.0.260 (Media Cybernetics, Inc., Rockville, MD, USA).

C[C@@H]1C/C=C/C=C/C=C/C=C/[C@H](O[C@@H]2O[C@H](C)[C@@H](O)[C@H](N)[C@@H]2O)C[C@@H]2O[C@](O)(C[C@@H](O)C[C@H]3O[C@@H]3/C=C/C(=O)O1)C[C@H](O)[C@H]2C(=O)O [Natamycin]
solubility at 7 days [1]: 35.3 ± 14 µg/mL (≈ 53 µM)
average particle size (TEM) ([2]; saturated solution of natamycin in 40% (w/v) HPβCD): 80.25 ± 35.81 nm
average particle size (TEM) ([2]; saturated solution of natamycin in 40% (w/v) HPβCD with 1% (w/v) voriconazole): 148.96 ± 32.89 nm
